{
  "source": "patent US5223508A",
  "about": "“Pyridyl carboximidamide compounds useful in treating blood pressure” (Kirin Beer Kabushiki Kaisha, priority 1992, dated 1993)",
  "key": {"[1]": {"tested_on": "potassium channel", "conditions": "literature; cited from earlier work"}, "[2]": {"tested_on": "animal", "conditions": "literature; cited from earlier work"}, "[3]": {"tested_on": "potassium channel", "experiment": "Potassium channel activating effect (86Rb efflux from rat thoracic aorta)", "parameters": "species or system male Wistar rats", "conditions": "10^-4M, 8 minutes", "procedure": "Male Wistar rats (weighing 250-350 g) were dehematized to death, and thoracic aortae were rapidly isolated. The aorta was opened along the longitudinal axis to prepare a flat sheet. The preparation was loaded with ^86 Rb in the Krebs-Ringer solution which contained ^86 Rb in the concentration of 10 μCi/ml and was gassed with 95% O2 -5% CO2 at 37° C. for 2 hours. The preparation was then transferred to a Krebs-Ringer solution not containing ^86 Rb, and washed to remove excess radioactivity for 18 minutes by refreshing the solution every 2 minutes. Finally the preparation was placed into a Krebs-Ringer solution containing each compound (10^-4M) for 8 minutes.\nThe amount of ^86 Rb efflux from the preparation in each period was determined with a γ-counter.\nThe increment in efflux rate during the application of the compound was expressed as percent of the efflux before the application of the compound."}, "[4]": {"tested_on": "isolated rat aortae", "experiment": "Vasorelaxing effect on the isolated rat aortae (40 mM KCl contraction)", "parameters": "species or system male Wistar rats", "conditions": "inhibition of 40 mM KCl-induced contraction, isolated rat aorta", "procedure": "Vasorelaxing effect on the isolated rat aortae\nThe compounds of the present invention were tested for their physiological activities by measuring the tension of isolated rat aortae isometrically.\nThoracic aortae obtained from male Wistar rats (weighing 250-350 g) were cut into ring segments about 3 mm long. The ring preparation was placed in an organ bath filled with 10 ml of Krebs-Ringer solution that was maintained at 37° C. and gassed with 95% O2 -5% CO2.\nThe preparation in the organ bath was allowed to equilibrate under resting tension of 1 g. After equilibration period, the solution in the organ bath was replaced with an isotonic solution containing 40 mM KCl to contract the preparation.\nAfter the contraction induced by KCl had reached plateau, the concentration-response relationship for the test compound was determined by means of cumulative addition.\nThe relaxation response of the test compounds was expressed as the percent inhibition of the contraction induced by KCl, and the IC50 value, which is a concentration required for inhibiting the contraction induced by KCl to an extent of 50%, was calculated by the Probit method from the concentration-response curve."}, "[5]": {"tested_on": "male ddY mice", "experiment": "Effect on hypoxia (survival time)", "type": "in vivo", "conditions": "oral, 96% N2 -4% O2, mean ± S.E.M.", "procedure": "Effect of the compound of the present invention on hypoxia\nThe effect of the compound of the present invention [test compound: N-cyano-N'-(2-nitroxyethyl)-3-pyridinecarboximidamide (compound (13))] on hypoxia was examined in male ddY mice (4 week old). Mice were exposed to a gas mixture of 96% N2 -4% O2 that was streamed in a flow rate of 5 l/min.\nThe time from the onset of the gas stream till the stop of respiration [survival time (sec)] was measured.\nThe test compound was orally administered in the dosage form of a 2% suspension in gum arabic 30 minutes before the onset of the gas streaming. The control group was administered a gum arabic suspension only."}},
  "data": [
    {"smiles": "CC1(C)Oc2ccc(C#N)cc2[C@@H](N2CCCC2=O)[C@@H]1O", "note": "(relative stereo) [chromakalim]", "values": [
      {"measurement": "potassium channel activating effect", "setting": "[1]", "result": "potassium channel activating effect"},
      {"measurement": "effects in animal experiments", "setting": "[2]", "result": "vasodilating effect, antihypertensive effect, coronary blood flow increasing effect, cerebral vasodilative effect and bronchodilatative effect"}
    ]},
    {"smiles": "N#CNC(=NCc1ccccc1)c1cccnc1", "note": "[(17), N-cyano-N'-benzyl-3-pyridinecarboximidamide]", "values": [
      {"measurement": "Increment of Efflux (86Rb)", "setting": "[3]", "result": 135.41, "unit": "%"}
    ]},
    {"smiles": "N#CNC(=NCCc1ccccc1)c1cccnc1", "note": "[(27), N-cyano-N'-(2-phenylethyl)-3-pyridinecarboximidamide]", "values": [
      {"measurement": "Increment of Efflux (86Rb)", "setting": "[3]", "result": 206.61, "unit": "%"}
    ]},
    {"smiles": "COc1ccc(NC(=NC#N)c2cccnc2)c(OC)n1", "note": "[(40), N-cyano-N'-3-(2,6-dimethoxypyridine)-3-pyridinecarboximidamide]", "values": [
      {"measurement": "IC50", "setting": "[4]", "result": 10, "unit": "µM"}
    ]},
    {"smiles": "N#CNC(=NCCO[N+](=O)[O-])c1ccncc1", "note": "[(41), N-cyano-N'-(2-nitroxyethyl)-4-pyridinecarboximidamide]", "values": [
      {"measurement": "Increment of Efflux (86Rb)", "setting": "[3]", "result": 126.88, "unit": "%"}
    ]},
    {"smiles": "N#CNC(=NCCO[N+](=O)[O-])c1cccnc1", "note": "[Compound (13), N-cyano-N'-(2-nitroxyethyl)-3-pyridinecarboximidamide]", "values": [
      {"measurement": "Increment of Efflux (86Rb)", "setting": "[3]", "result": 213.53, "unit": "%"},
      {"measurement": "Survival Time", "setting": "[5]; 0.3 mg/kg", "result": "130.27 ± 9.32", "unit": "s"},
      {"measurement": "Survival Time", "setting": "[5]; 1.0 mg/kg", "result": "201.00 ± 13.40", "unit": "s"},
      {"measurement": "Survival Time", "setting": "[5]; 3.0 mg/kg", "result": "523.15 ± 48.57", "unit": "s"}
    ]},
    {"smiles": "O=C(NCCO[N+](=O)[O-])c1cccnc1", "note": "[Nicorandil, nicorandil]", "values": [
      {"measurement": "potassium channel activating effect", "setting": "[1]", "result": "potassium channel activating effect"},
      {"measurement": "effects in animal experiments", "setting": "[2]", "result": "vasodilating effect, antihypertensive effect, coronary blood flow increasing effect, cerebral vasodilative effect and bronchodilatative effect"}
    ]},
    {"smiles": "CC(N/C(=N\\C#N)Nc1ccncc1)C(C)(C)C", "note": "(centres unmarked) [pinacidil]", "values": [
      {"measurement": "potassium channel activating effect", "setting": "[1]", "result": "potassium channel activating effect"},
      {"measurement": "effects in animal experiments", "setting": "[2]", "result": "vasodilating effect, antihypertensive effect, coronary blood flow increasing effect, cerebral vasodilative effect and bronchodilatative effect"}
    ]}
  ]
}
